Results on 3 compounds are retold here after patent US7972798B2, “Method for identifying diabetic patients at increased risk for pathological complications” (The United States of America as represented by the …, priority 2007, dated 2011).

The test system of one experiment is Bovine endothelial cells. Briefly: Apoptosis assay (Hoechst 33342 / propidium iodide) in endothelial cells. The format is cell-based. As to the method: Apoptosis Assay. Endothelial cells were cultured in 24-well plates to reach ˜90% confluence. Purified IgG was added directly to cultured medium. At 0, 6, 12, 18 and 24 hours, culture media was removed and the cells were incubated in a balanced salt solution (BSS) (140 mM NaCl, 2.8 mM KCl, 2 mM CaCl2, 2 mM MgCl2, 10 mM HEPES, pH 7.2) containing propidium iodide (PI, 25 μg/ml) and Hoechst 33342 (10 μM, Sigma) for 15 min. The cells were examined by Zeiss Axiovert 200M microscope using 20× objective (NA 0.4) for phase contrast, fluorescent blue (Hoechst) and red (PI) images. As a membrane permeable dye, Hoechst stains all nuclei with bright blue, while cell impermeable PI only stains the nuclei in the dying cells, which lost their membrane integrity. Early apoptotic cells whose membranes are still intact present only blue nuclei, but the initiation of DNA fragmentation result in patched labeling of the nuclei by Hoechst (14). Cells entering the late apoptotic stage have bright red condensed chromatin or fragmented nuclei that distinguish them from necrotic ones, which have a uniform red color usually with enlarged nuclei. For each experiment, a minimum of total 400 cells for each duplicated sample were counted from at least five randomly chosen fields and the percentage of total apoptotic cells was obtained by adding early and late apoptotic cells. Each experiment was repeated at least three times.

For the next experiment, the system named is endothelial cells. Briefly: F-actin stress fiber formation in endothelial cells (phalloidin staining). To be noted: co-incubation, 10 uM. The format is cell-based, bovine. As to the method: For bright field images, the ˜90% confluent endothelial cells in 24-well plates with various treatments were visualized under Zeiss Axiovert 200 inverted microscope with phase contrast 20× dry lens (NA 0.4). Alternatively, the cells cultured in glass-bottom dishes were monitored under transmission light mode (DIC images) with Zeiss LSM510 META confocal microscope with 63×, water immersion lens (NA 1.2). The live cell DIC images of the endothelial cells were captured continuously up to 15 minutes at room temperature at the speed of about 1 frame/min. For fluorescence images, the cells were cultured on glass-bottom dishes for two days before the experiments. At indicated time point after addition of autoantibodies, 10 μM Hoechst dye 33342 (Sigma Inc., St Louis, Mo.) was added into the culture medium for 15 min at 37° C. in a dark chamber. As described previously, the chromatin condensation and fragmentation was visualized with the Zeiss confocal laser scanning microscope using a 63× water immersion objective, with the excitation wavelength set at 351 nm and the emission filter set at 385-470 nm. We used Texas Red-labeled phalloidin to visualize actin stress fibers. First, we aseptically inserted glass coverslips (12-mm diameter) into 24-well tissue culture plate. […]

Experiment [1] has as its system rat pheochromocytoma (PC12) cells. Briefly: bFGF-induced neurite outgrowth assay in PC12 cells. The class given is cell-based. How it is done: Undifferentiated rat PC12 cells were obtained from American Type Culture Collection (Rockville, Md.) and plated at low density in 60 mm dishes. Three groups of 25-50 cells/dish were counted at baseline and at 3 days and 8 days after the addition of test patient protein-A eluate fractions (1:50 or 1:100 dilutions corresponding to 1-30 ug/mL protein). Neurite outgrowth represents the percentage of PC12 cells expressing more than one neurite. A neurite is defined as a cell process that is at least 2 cell diameters in length. Results represent the mean±SD of triplicate determinations in each test fraction.
Undifferentiated rat PC12 cells obtained from the ATCC were plated at low density. Groups of 25-50 cells/dish were counted at baseline and at 3 and 8 days after exposure to 10 ng/mL basic fibroblast growth factor in the presence or absence of test diabetic plasma IgG fractions and Y27632. Results represent triplicate determinations for each test fraction.

Entries after “also recorded” stand apart in the source; their conditions may differ.

`C[C@@H](N)[C@H]1CC[C@H](C(=O)Nc2ccncc2)CC1` [Patient Y27632, Y27632]: the “inhibition of endothelial cell apoptosis from one diabetic IgG fraction” value with Bovine endothelial cells (10 uM, n=3 experiments) is “partially inhibited”. The “inhibition of autoantibody-induced stress fiber formation” value in the experiment with endothelial cells is reported as “largely inhibited”. For the same compound, the “restoration of bFGF-induced neurite outgrowth in presence of blocking autoantibodies” value is “completely restored neurite outgrowth” in experiment [1] (Y27632 1 uM, bFGF 10 ng/mL, autoantibodies from three diabetic patients); “abolished; also recorded: neutralization of inhibition; also recorded: reversal” in experiment [1] (co-incubation, concentration not stated); “completely restored” in experiment [1] (co-incubation, concentration not stated, listed as Y-27632).
With `CC(C)[C@H](NC(=O)c1ccc2ccccc2n1)C(=O)N[C@@H](CC(=O)O)C(=O)COc1c(F)cccc1F` [Q-VD-OPH], in the experiment on Bovine endothelial cells (10 μM, 12 hours), the “block of apoptosis in cells exposed to IgG from patient #2” value is listed as “almost completely blocked apoptosis”. The “block of apoptosis in cells exposed to diabetic plasma IgG” value in the experiment on Bovine endothelial cells (concentration not given) is recorded as “nearly completely blocked apoptosis”.
Take “bFGF: Recombinant human bFGF from Austral Biologicals”: the “rescue or prevention of eluate-induced apoptosis” value in the experiment with Bovine endothelial cells (100 pg/mL bFGF co-incubated with 4-30 ug/mL active protein-A eluate from 5 of 5 diabetic maculopathy plasmas, preliminary) is “did not rescue or prevent apoptosis”.
